Test results from the NIST ThermoML archive (doi:10.1016/j.fluid.2014.11.020).
Numbers after ± are expanded uncertainties.

Experiment: activity coefficient (dimensionless); of the first substance listed, at infinite dilution; xn = mol fraction of the nth substance listed
Details: Liquid, Chromatography, x1 = 0

Molecule `CCC(C)=O` [butanone] + CCCOC[n+]1ccn(Cc2ccccc2)c1.O=S(=O)([N-]S(=O)(=O)C(F)(F)F)C(F)(F)F has an activity coefficient (323.15 K) of 0.32 ± 0.03, an activity coefficient (333.15 K) of 0.26 ± 0.03 and an activity coefficient (343.15 K) of 0.22 ± 0.03.

With `CCC(C)=O` [butanone] + CN(C)c1cc[n+](COCCCOC[n+]2ccc(N(C)C)cc2)cc1.O=S(=O)([N-]S(=O)(=O)C(F)(F)F)C(F)(F)F.O=S(=O)([N-]S(=O)(=O)C(F)(F)F)C(F)(F)F the activity coefficient (323.15 K) was 0.44 ± 0.04, the activity coefficient (333.15 K) was 0.41 ± 0.03 and the activity coefficient (343.15 K) was 0.38 ± 0.03.

`CCC(C)=O` [butanone] + Cn1cc[n+](COCCCOC[n+]2ccn(C)c2)c1.N#C[N-]C#N.N#C[N-]C#N gave an activity coefficient (323.15 K) of 1.7 ± 0.11, an activity coefficient (333.15 K) of 1.56 ± 0.1 and an activity coefficient (343.15 K) of 1.44 ± 0.09.

With `CCC(C)=O` [butanone] + Cn1cc[n+](COCCCOC[n+]2ccn(C)c2)c1.O=S(=O)([N-]S(=O)(=O)C(F)(F)F)C(F)(F)F.O=S(=O)([N-]S(=O)(=O)C(F)(F)F)C(F)(F)F the activity coefficient (323.15 K) was 0.36 ± 0.03, the activity coefficient (333.15 K) was 0.34 ± 0.03 and the activity coefficient (343.15 K) was 0.32 ± 0.03.

Molecule `CCC(C)=O` [butanone] + N#C[N-]C#N.N#C[N-]C#N.c1ccc(Cn2cc[n+](COCCCOC[n+]3ccn(Cc4ccccc4)c3)c2)cc1 has an activity coefficient (323.15 K) of 1.78 ± 0.12, an activity coefficient (333.15 K) of 1.55 ± 0.1 and an activity coefficient (343.15 K) of 1.41 ± 0.09.

Work on `C1CCCCCC1` [cycloheptane] + CCCCCCCCn1cc[n+](COCCC)c1C.N#C[N-]C#N yielded an activity coefficient (323.15 K) of 15.7 ± 1.1.

Molecule `C1CCCCCC1` [cycloheptane] + CCCCCCCCn1cc[n+](COCCC)c1C.O=S(=O)([N-]S(=O)(=O)C(F)(F)F)C(F)(F)F has an activity coefficient (323.15 K) of 6.43 ± 0.44, an activity coefficient (333.15 K) of 8.72 ± 0.6 and an activity coefficient (343.15 K) of 11.5 ± 0.78.

`C1CCCCCC1` [cycloheptane] + CCCCCCCCn1cc[n+](COCCCOC[n+]2ccn(CCCCCCCC)c2C)c1C.N#C[N-]C#N.N#C[N-]C#N gave an activity coefficient (323.15 K) of 10.1 ± 0.69, an activity coefficient (333.15 K) of 13.5 ± 0.92 and an activity coefficient (343.15 K) of 18.3 ± 1.2.

Molecule `C1CCCCCC1` [cycloheptane] + CCCCCCCCn1cc[n+](COCCCOC[n+]2ccn(CCCCCCCC)c2C)c1C.O=S(=O)([N-]S(=O)(=O)C(F)(F)F)C(F)(F)F.O=S(=O)([N-]S(=O)(=O)C(F)(F)F)C(F)(F)F has an activity coefficient (323.15 K) of 5.84 ± 0.4, an activity coefficient (333.15 K) of 7.77 ± 0.53 and an activity coefficient (343.15 K) of 10.2 ± 0.7.

For `C1CCCCCC1` [cycloheptane] + CCCOC[n+]1ccc(N(C)C)cc1.O=S(=O)([N-]S(=O)(=O)C(F)(F)F)C(F)(F)F, the activity coefficient (323.15 K) was 18.6 ± 1.3, the activity coefficient (333.15 K) was 24.6 ± 1.7 and the activity coefficient (343.15 K) was 31.7 ± 2.2.

In the case of `C1CCCCCC1` [cycloheptane] + CCCOC[n+]1ccn(C)c1.F[B-](F)(F)F, the activity coefficient (323.15 K) is reported as 153 ± 11, the activity coefficient (333.15 K) is reported as 240 ± 16 and the activity coefficient (343.15 K) is reported as 245 ± 17.

With `C1CCCCCC1` [cycloheptane] + CCCOC[n+]1ccn(C)c1.N#C[N-]C#N the activity coefficient (323.15 K) was 79.2 ± 5.4, the activity coefficient (333.15 K) was 105 ± 7.2 and the activity coefficient (343.15 K) was 133 ± 9.1.

`C1CCCCCC1` [cycloheptane] + CCCOC[n+]1ccn(C)c1.O=S(=O)([N-]S(=O)(=O)C(F)(F)F)C(F)(F)F gave an activity coefficient (323.15 K) of 27.2 ± 1.9, an activity coefficient (333.15 K) of 35.8 ± 2.5 and an activity coefficient (343.15 K) of 46.1 ± 3.2.

For `C1CCCCCC1` [cycloheptane] + CCCOC[n+]1ccn(Cc2ccccc2)c1.N#C[N-]C#N, the activity coefficient (323.15 K) was 35.8 ± 2.5, the activity coefficient (333.15 K) was 47.2 ± 3.2 and the activity coefficient (343.15 K) was 56.3 ± 3.9.

In the case of `C1CCCCCC1` [cycloheptane] + CCCOC[n+]1ccn(Cc2ccccc2)c1.O=S(=O)([N-]S(=O)(=O)C(F)(F)F)C(F)(F)F, the activity coefficient (323.15 K) is reported as 13.4 ± 0.91, the activity coefficient (333.15 K) is reported as 15.8 ± 1.1 and the activity coefficient (343.15 K) is reported as 20.5 ± 1.4.

`C1CCCCCC1` [cycloheptane] + CN(C)c1cc[n+](COCCCOC[n+]2ccc(N(C)C)cc2)cc1.O=S(=O)([N-]S(=O)(=O)C(F)(F)F)C(F)(F)F.O=S(=O)([N-]S(=O)(=O)C(F)(F)F)C(F)(F)F gave an activity coefficient (323.15 K) of 27 ± 1.9, an activity coefficient (333.15 K) of 34.9 ± 2.4 and an activity coefficient (343.15 K) of 42.8 ± 2.9.

Work on `C1CCCCCC1` [cycloheptane] + Cn1cc[n+](COCCCOC[n+]2ccn(C)c2)c1.O=S(=O)([N-]S(=O)(=O)C(F)(F)F)C(F)(F)F.O=S(=O)([N-]S(=O)(=O)C(F)(F)F)C(F)(F)F yielded an activity coefficient (323.15 K) of 41.5 ± 2.8, an activity coefficient (333.15 K) of 51.9 ± 3.5 and an activity coefficient (343.15 K) of 63.5 ± 4.3.

In the case of `C1CCCCCC1` [cycloheptane] + N#C[N-]C#N.N#C[N-]C#N.c1ccc(Cn2cc[n+](COCCCOC[n+]3ccn(Cc4ccccc4)c3)c2)cc1, the activity coefficient (323.15 K) is reported as 117 ± 8, the activity coefficient (333.15 K) is reported as 139 ± 9.6 and the activity coefficient (343.15 K) is reported as 171 ± 12.

`C1CCCCC1` [cyclohexane] + CCCCCCCCn1cc[n+](COCCC)c1C.N#C[N-]C#N showed an activity coefficient (323.15 K) of 4.06 ± 0.28, an activity coefficient (333.15 K) of 3.85 ± 0.26 and an activity coefficient (343.15 K) of 3.82 ± 0.26.

In the case of `C1CCCCC1` [cyclohexane] + CCCCCCCCn1cc[n+](COCCCOC[n+]2ccn(CCCCCCCC)c2C)c1C.N#C[N-]C#N.N#C[N-]C#N, the activity coefficient (323.15 K) is reported as 4.29 ± 0.29, the activity coefficient (333.15 K) is reported as 3.86 ± 0.26 and the activity coefficient (343.15 K) is reported as 3.71 ± 0.25.

For `C1CCCCC1` [cyclohexane] + CCCCCCCCn1cc[n+](COCCCOC[n+]2ccn(CCCCCCCC)c2C)c1C.O=S(=O)([N-]S(=O)(=O)C(F)(F)F)C(F)(F)F.O=S(=O)([N-]S(=O)(=O)C(F)(F)F)C(F)(F)F, the activity coefficient (323.15 K) was 2.41 ± 0.16, the activity coefficient (333.15 K) was 2.22 ± 0.15 and the activity coefficient (343.15 K) was 2.11 ± 0.14.

In the case of `C1CCCCC1` [cyclohexane] + CCCOC[n+]1ccc(N(C)C)cc1.O=S(=O)([N-]S(=O)(=O)C(F)(F)F)C(F)(F)F, the activity coefficient (323.15 K) is reported as 7.06 ± 0.48, the activity coefficient (333.15 K) is reported as 6.83 ± 0.47 and the activity coefficient (343.15 K) is reported as 6.37 ± 0.43.
